In ChEMBL document CHEMBL1150293, “The pyridoxamine action on Amadori compounds: A reexamination of its scavenging capacity and chelating effect” (Bioorg Med Chem, 2008):

Assay: Aqueous stability assessed as half life at pH 7.4 by HPLC
Type: physicochemical
Settings: aqueous solution

SMILES | half-life [h]
O=C(CN[C@H](Cc1c[nH]c2ccccc12)C(=O)O)[C@@H](O)[C@H](O)[C@H](O)CO | 25
O=C(CN1CCOCC1)[C@@H](O)[C@H](O)[C@H](O)CO | 92
